The results in this text go back to patent publication US20030133874A1, “Analytical method to evaluate animal models of neurofibrillary degeneration” (priority 2002, published 2003).

In data set [1] the test system is tau. The experiment in a line: Tau phosphorylation in rat brain after prolonged pentobarbital anesthesia, immunoblot of heat-stable extracts. Particulars: rats, five hours after 65 mg/kg. (A western blot detects proteins with antibodies after separation by electrophoresis.)
Description: The animals at 5 hrs after the first anesthesia had to be anethesized a second time, as they had regained full consciousness. […] Recovered brains were homogenized and supernatants processed for immunoblotting with AT8 and Tau-1 as before. To normalize signal intensity with phosphorylation-dependent mAbs to total amount of tau protein present in each extract (specific labelling) sister blots with a five-fold reduced load of extract protein were subjected to exhaustive dephosphorylation with calf intestinal alkaline phosphatase prior to staining with Tau-1. Blots were developed by ECL and relevant areas of the blots were scanned densitometrically. […]
A second dose of anesthetic was administered immediately prior to brain removal when excision occurred two hours or more after the first anesthesia. Cortices were processed and tau proteins analyzed by Western-blotting as in Example 2, using mAbs Tau-1 and AT8. To allow quantitative immunochemical evaluation of tau phosphorylation sister blots of all samples with a five-fold lower protein load were subjected to exhaustive dephosphorylation to provide a relative measure for total load of tau protein using Tau-1 staining. […] Signals were captured on KODAK X-OMAT scientific imaging film and quantitated by densitometric scanning and image analysis with NIH image 1.44. […]
The test system of data set [2] is tau. The data set can be described thus: Tau hyperphosphorylation in vivo after intracerebral injection into nucleus basalis, immunoblot. The note with it: rat nucleus basalis. The procedure: a) Analysis with mAbs Tau-1 and AT8. […] Brains were surgically removed, the nucleus basalis dissected and homogenized in ice-cold stop buffer after 30 to 360 min. Heatstable supernatants were immunoblotted with Tau-1, AT8, and Tau-1 after dephosphorylation on the blot for normalization purposes.
b) Relevant areas of immunoblots developed with ECL were scanned densitometrically and AT8 signals normalized to Tau-1 signals of phosphatase-treated blots. Results represent triplicate experiments, P values were determined by ANOVA.
c) Aliquots of extracts of vehicle and okadaic acid injected nuclei basali were immunoblotted with mAb AP422.
Male or female Long-Evans rats at approximately 3 to 4 months of age were housed in pairs with food and water available ad libidum. […] The tissue was held out of the operating field with forceps and the areas of injection were marked. Openings were made through the skull using a dentists drill and a number 5 carbide bur. […]
Heat-stable supernatants of triplicate experiments were analyzed by immunoblotting with AT8 (FIG. 5a) and AP422 (FIG. 5c). AT8 signals were quantitated after normalization to Tau-1 immunoreactivity on phosphatase-treated blots as described in example 3. […]

Data set [3] relates to tau. The data set can be described thus: Induction of tau hyperphosphorylation in rat hippocampal brain slices, immunoblot. Format: cell-based. The procedure:
Freshly prepared hippocampal brain slices from adult Long-Evans rats were incubated under oxygenation in a physiological buffer for 1 hr with increasing concentrations of okadaic acid. Slices were homogenized in an ice-cold stop buffer by brief ultrasonication, and supernatants were boiled and analyzed for heatstable tau proteins by immunoblotting with reference mAbs Tau-1, AT8, and PHF-1 (FIG. 4a), and AP422 (FIG. 4b).
Adult male Long-Evans rats were anesthesized with CO2 and decapitated. Brains were removed within 2 min and the hippocampus was dissected using a blunt spatula. Hippocampi were cut into […] slices using a Mcllwain tissue chopper and placed into ice-cold low Ca^2+ Krebs-Bicarbonate buffer (pH 7.0): 124 mM NaCl, 3.33 mM KCl, 0.01 mM Ca^2+, 1.25 mM KH2P04, 1.33 mM MgS04, 25.7 mM NaHCO3, 10 mM D-Glucose, 20 mM HEPES. 5-8 slices were placed into a tube with 5 ml of low Ca^2+ buffer and incubated for at least 30 min at 33-34° C. with water saturated oxygenation (95% O2, 5% CO2.). After 30 min the solution was replaced with a buffer containing a physiological level of Ca^2+ (1.3 mM) and incubated for an additional 30 min. […] Aliquots of heat-stable supernatants, normalized for protein content, were analyzed on 10% SDS-PAGE, followed by immunoblotting with mAbs AT8 (1:200) and AP422 (1:5,000). […]

Take `CCCC(C)C1(CC)C(=O)NC(=O)NC1=O` (centres unmarked) [pentobarbital]: the “autonomous signs after regaining consciousness” value in data set [1] was “no abnormal autonomous signs”.

On to `C=C1[C@@H](O)[C@@H]2O[C@]3(CC[C@H](/C=C/[C@@H](C)[C@@H]4CC(C)=C[C@@]5(O[C@H](C[C@@](C)(O)C(=O)O)CC[C@H]5O)O4)O3)CC[C@H]2O[C@@H]1[C@@H](O)C[C@H](C)[C@H]1O[C@@]2(CCCCO2)CC[C@H]1C` [okadaic acid], for which the “specific effect on normalized AT8 signal” value in data set [2] (30 to 360 min after injection) is reported as “impossible to discern”. The “in vivo tau hyperphosphorylation detected with AP422” value in data set [2] (individual animals) was “does not always occur”. Further, the “tau hyperphosphorylation detected with AT8” value in data set [3] (freshly prepared rat brain slices) is listed as “tau hyperphosphorylation induced”. In addition, the “AP422 reactivity of tau” value in data set [3] (rat hippocampal brain slices, increasing concentrations) was “induced”.
